Results published in patent US12304900B2, “Islet cell manufacturing compositions and methods of use” (Vertex Pharmaceuticals Incorporated, priority 2017, dated 2025).

Tested on: PGT cells (Stage 2 cells)
Experiment: Flow cytometry of cell constituent at Stage 4-complete after signaling factors at Stage 3
Format: cell-based
From the text: In the meantime, LDN193189 also promoted chromogranin A (CHGA) expression in Stage 4-complete cells.

[1] = Stage 4-complete, 0.5 μM DMH-1 alone vs no DMH-1, FIG. 6B

| Compound | percentage of cells expressing CDX2 [1] | percentage of cells expressing CHGA [1] | chromogranin A (CHGA) expression (Stage 4-complete cells, LDN193189 at Stage 3, FIG. 6A) | percentage of CDX2-positive cells (Stage 4-complete, LDN193189 at Stage 3 vs absence, FIG. 6A) |
| --- | --- | --- | --- | --- |
| CC(C)Oc1ccc(-c2cnc3c(-c4ccnc5ccccc45)cnn3c2)cc1 [DMH-1] | reduced | increased |  |  |
| c1ccc2c(-c3cnn4cc(-c5ccc(N6CCNCC6)cc5)cnc34)ccnc2c1 [LDN193189, 4-[6-(4-piperazin-1-ylphenyl)pyrazolo[1,5-a]pyrimidin-β-yl]quinolone] |  |  | promoted | clearly reduced |
